The values below come from patent publication US20240132431A1, “METHOD FOR ALKYLATING ACIDIC FUNCTIONAL GROUP” (Chugai Seiyaku Kabushiki Kaisha, priority 2021, published 2024).

The test concerns the target T1, Bcl-2 protein (Recombinant Human Bcl-2 Protein) (Homo sapiens, UniProt P10415).
T1 construct: purchased Novus NBP2-34889
Nature of the test: Binding evaluation of mixture library compounds to Bcl-2 using AS-MS (affinity selection mass spectrometry). The following applies: for ASMS ratio (%) n = 1 / ASMS ratio (%) n = 2: ASMS Ratio(%)=(A−C)/B×100; for ASMS ratio (%) n = 1: replicate n = 1; for ASMS ratio (%) n = 2: replicate n = 2. The gist of the method: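 Pooled library of ~1200 compounds ([…] each, final) incubated with recombinant human Bcl-2 (20 μM final) in Tris-HCl pH 7.4, NaCl, Tween-20, DTT buffer, dark, 23° C., 1 h. Bound fraction recovered by SEC spin column, organic extraction, reversed-phase LC/MS. ASMS Ratio (%) = (A−C)/B×100 versus protein-free standard and SEC blank.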

Where [1] appears, read: AS-MS, mixture of 1200 compounds, Bcl-2.
The mark [2] stands for this setting: AS-MS on the mixture of 1200 library compounds.

T1 sequence (P10415 whole entry): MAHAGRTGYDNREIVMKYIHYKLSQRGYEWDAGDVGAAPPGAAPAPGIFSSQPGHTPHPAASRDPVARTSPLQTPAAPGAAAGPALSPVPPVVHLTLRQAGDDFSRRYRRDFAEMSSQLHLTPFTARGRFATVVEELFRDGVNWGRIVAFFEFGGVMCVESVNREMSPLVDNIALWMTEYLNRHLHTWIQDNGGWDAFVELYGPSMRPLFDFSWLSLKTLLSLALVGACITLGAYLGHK

For the molecule `CCOc1cccc(-c2cnn(-c3cc(C(=O)N4CCN(c5ccc(C(=O)NS(=O)(=O)c6ccc(NCCSc7ccccc7)c(C(F)(F)F)c6)nn5)CC4)cc(C(F)(F)F)c3)c2)c1` [B2R021-01, 6-[4-[3-[4-(3-Ethoxyphenyl)pyrazol-1-yl]-5-(trifluoromethyl)benzoyl]piperazin-1-yl]-N-[4-(2-phenylsulfanylethylamino)-3-(trifluoromethyl)phenyl]sulfonylpyridazine-3-carboxamide], the “ASMS ratio (%)” value by setting is: (n = 1) 13.0%; (n = 2) 0.0%. On to `CCOc1cccc(-c2ccc(CN3CCN(c4ccc(C(=O)NCC(F)(F)F)nn4)CC3)cc2F)c1` [B1K077-01, 6-[4-[[4-(3-Ethoxyphenyl)-3-fluorophenyl]methyl]piperazin-1-yl]-N-(2,2,2-trifluoroethyl)pyridazine-3-carboxamide], for which, under setting [1], the “ASMS ratio (%) n = 1” value was determined as 2.4% and the “ASMS ratio (%) n = 2” value is given as −0.2%. For `CCOc1cccc(-c2ccc(C(=O)N3CCN(c4ccc(C(=O)NCC56CC7CC(CC(C7)C5)C6)nn4)CC3)cc2C)c1` [B1A003-01, N-(1-Adamantylmethyl)-6-[4-[4-(3-ethoxyphenyl)-3-methylbenzoyl]piperazin-1-yl]pyridazine-3-carboxamide], under setting [1], the “ASMS ratio (%) n = 1” value came out at 7.5% and the “ASMS ratio (%) n = 2” value stood at 5.8%. Take `CCOc1cccc(-c2ccccc2CCC(=O)N2CCN(c3ccc(C(=O)NS(=O)(=O)C(C)(C)C)cc3)CC2)c1` [B2L033-01, N-tert-Butylsulfonyl-4-[4-[3-[2-(3-ethoxyphenyl)phenyl]propanoyl]piperazin-1-yl]benzamide]: the “ASMS ratio (%)” value is reported as 0.0% (n = 1) and 0.0% (n = 2). For `CCOc1cncc(-c2ccc(C(=O)N3CCN(c4ccc(C(=O)NS(=O)(=O)c5ccc(NCCSc6ccccc6)c([N+](=O)[O-])c5)cc4)CC3)cc2F)c1` [B2Q028-01, 4-[4-[4-(5-Ethoxypyridin-3-yl)-3-fluorobenzoyl]piperazin-1-yl]-N-[3-nitro-4-(2-phenylsulfanylethylamino)phenyl]sulfonylbenzamide], under “AS-MS, mixture library, Bcl-2”, the “ASMS ratio (%) n = 1” value stood at 0.0% and the “ASMS ratio (%) n = 2” value is reported as −3.7%. As for `CCOc1cccc(-c2ccc(C(C)N3CCN(c4ccc(C(=O)NS(=O)(=O)c5ccc(NCCSc6ccccc6)c(C(F)(F)F)c5)cc4)CC3)cc2)c1` (stereo not shown) [B2R097-01, 4-[4-[1-[4-(3-Ethoxyphenyl)phenyl]ethyl]piperazin-1-yl]-N-[4-(2-phenylsulfanylethylamino)-3-(trifluoromethyl)phenyl]sulfonylbenzamide], the “ASMS ratio (%)” value reads like this: (n = 1) 6.6%; (n = 2) −7.8%. For “6-[4-[4-(5-Ethoxypyridin-3-yl)-3-methylbenzoyl]piperazin-1-yl]-N-propylpyridazine-3-carboxamide [B1M037-01]”, under setting [1], the “ASMS ratio (%) n = 1” value was −1.5% and the “ASMS ratio (%) n = 2” value was determined as 2.3%. Consider `CCOc1cncc(-c2csc(CN3CCN(c4ccc(C(=O)Nc5ccc(OC)cc5)nn4)CC3)c2)c1` [B1O094-01, 6-[4-[[4-(5-Ethoxypyridin-3-yl)thiophen-2-yl]methyl]piperazin-1-yl]-N-(4-methoxyphenyl)pyridazine-3-carboxamide], for which, under setting [2], the “ASMS ratio (%) n = 1” value was 2.2% and the “ASMS ratio (%) n = 2” value is on record as −0.7%. In the same order, the values of `CCOc1cccc(-c2ccc(C(=O)N3CCN(c4ccc(C(=O)Nc5ccc(OC)cc5)nn4)CC3)cc2F)c1` [B1O005-01, 6-[4-[4-(3-Ethoxyphenyl)-3-fluorobenzoyl]piperazin-1-yl]-N-(4-methoxyphenyl)pyridazine-3-carboxamide] are 3.6% and −2.5%. In the case of `CCOc1cccc(-c2cnn(-c3cc(C(=O)N4CCN(c5ccc(C(=O)NS(C)(=O)=O)cc5)CC4)cc(C(F)(F)F)c3)c2)c1` [B2I043-01, 4-[4-[3-[4-(3-Ethoxyphenyl)pyrazol-1-yl]-5-(trifluoromethyl)benzoyl]piperazin-1-yl]-N-methylsulfonylbenzamide], the “ASMS ratio (%)” value was determined as 0.0% (n = 1) and 0.0% (n = 2).

Regarding `CCOc1cccc(-c2ccccc2CN2CCN(c3ccc(C(=O)Nc4ccc(OC)cc4)cc3)CC2)c1` [B1O045-01, 4-[4-[[2-(3-Ethoxyphenyl)phenyl]methyl]piperazin-1-yl]-N-(4-methoxyphenyl)benzamide], under setting [2], the “ASMS ratio (%) n = 1” value is recorded as 0.0% and the “ASMS ratio (%) n = 2” value amounted to 0.0%.

On to `CCOc1cccc(-c2cc(CN3CCN(c4ccc(C(=O)N(C)CC56CC7CC(CC(C7)C5)C6)cc4)CC3)cc(OC(C)C)c2)c1` [B3A057-01, N-(1-Adamantylmethyl)-4-[4-[[3-(3-ethoxyphenyl)-5-propan-2-yloxyphenyl]methyl]piperazin-1-yl]-N-methylbenzamide], for which, under setting [2], the “ASMS ratio (%) n = 1” value is 6.3% and the “ASMS ratio (%) n = 2” value is recorded as 2.5%.

With `CCOc1cncc(C#Cc2ccccc2CN2CCN(c3ccc(C(=O)NS(C)(=O)=O)cc3)CC2)c1` [B2I070-01, 4-[4-[[2-[2-(5-Ethoxypyridin-3-yl)ethynyl]phenyl]methyl]piperazin-1-yl]-N-methylsulfonylbenzamide], where the note is “n = 2”, the “ASMS ratio (%)” value was 0.0%.

For the molecule `CCOc1cccc(-c2cc(OC)c(CN3CCN(c4ccc(C(=O)Nc5ccc(OC)cc5)cc4)CC3)c(OC)c2)c1` [B1O059-01, 4-[4-[[4-(3-Ethoxyphenyl)-2,6-dimethoxyphenyl]methyl]piperazin-1-yl]-N-(4-methoxyphenyl)benzamide], under setting [2], the “ASMS ratio (%) n = 1” value was 2.0% and the “ASMS ratio (%) n = 2” value is recorded as −1.9%.

In the case of `CCOc1cncc(-c2ccc(C(C)N3CCN(c4ccc(C(=O)Nc5ccc(OC)cc5)cc4)CC3)c(F)c2)c1` (stereo not shown) [B1O100-01, 4-[4-[1-[4-(5-Ethoxypyridin-3-yl)-2-fluorophenyl]ethyl]piperazin-1-yl]-N-(4-methoxyphenyl)benzamide], under setting [2], the “ASMS ratio (%) n = 1” value is listed as −19.7% and the “ASMS ratio (%) n = 2” value came to 11.1%.

Turning to `CCOc1cccc(-c2cc(C(=O)N3CCN(c4ccc(C(=O)NS(=O)(=O)c5ccc(NCCSc6ccccc6)c([N+](=O)[O-])c5)nn4)CC3)cc(C(F)(F)F)c2)c1` [B2Q017-01, 6-[4-[3-(3-Ethoxyphenyl)-5-(trifluoromethyl)benzoyl]piperazin-1-yl]-N-[3-nitro-4-(2-phenylsulfanylethylamino)phenyl]sulfonylpyridazine-3-carboxamide], where the note is “AS-MS, mixture library, Bcl-2”, the “ASMS ratio (%) n = 1” value came to 12.8% and the “ASMS ratio (%) n = 2” value turned out to be 0.2%.

As for `CCOc1cccc(-c2ccc(CN3CCN(c4ccc(C(=O)NS(=O)(=O)c5ccc(NCCSc6ccccc6)c([N+](=O)[O-])c5)nn4)CC3)cc2C)c1` [B2Q073-01], under “AS-MS, mixture library, Bcl-2”, the “ASMS ratio (%) n = 1” value is recorded as 0.0% and the “ASMS ratio (%) n = 2” value is on record as 0.0%. Take `CCOc1cncc(-c2ccccc2CN2CCN(c3ccc(C(=O)NS(=O)(=O)CCC(F)(F)F)nn3)CC2)c1` [B2N072-01]: the “ASMS ratio (%)” value by setting is: (n = 1) 0.0%; (n = 2) 0.1%. With `CCOc1cncc(-c2ccc(C(C)N3CCN(c4ccc(C(=O)Nc5ccc(OC)cc5)cc4)CC3)cc2)c1` (stereo not shown) [B1O098-01, 4-[4-[1-[4-(5-Ethoxypyridin-3-yl)phenyl]ethyl]piperazin-1-yl]-N-(4-methoxyphenyl)benzamide], under setting [2], the “ASMS ratio (%) n = 1” value is recorded as −42.7% and the “ASMS ratio (%) n = 2” value is given as −0.2%.
